Measurements taken from patent publication US10653676B2 (Dana-Farber Cancer Institute, Inc., priority 2010, dated 2020).
pIC50: −log10 of the molar value.

How the values were obtained:
USP1/UAF1 complex [1] = target: T1, USP1/UAF1 complex (Homo sapiens, UniProt O94782, G670A/G671A); test: ubiquitin-AMC in vitro deubiquitination enzyme assay; format: biochemical; settings: 4 hour preincubation; AMC-Ub in vitro enzyme assay; read-out: IC50
T1 construct: This modified full length USP1 clone was PCR amplified and subcloned into pFastBac-HT vectors; His tag (N); made in house; host or cells: Sf9 insect cells (baculovirus)
T1 sequence (O94782 whole entry G670A/G671A): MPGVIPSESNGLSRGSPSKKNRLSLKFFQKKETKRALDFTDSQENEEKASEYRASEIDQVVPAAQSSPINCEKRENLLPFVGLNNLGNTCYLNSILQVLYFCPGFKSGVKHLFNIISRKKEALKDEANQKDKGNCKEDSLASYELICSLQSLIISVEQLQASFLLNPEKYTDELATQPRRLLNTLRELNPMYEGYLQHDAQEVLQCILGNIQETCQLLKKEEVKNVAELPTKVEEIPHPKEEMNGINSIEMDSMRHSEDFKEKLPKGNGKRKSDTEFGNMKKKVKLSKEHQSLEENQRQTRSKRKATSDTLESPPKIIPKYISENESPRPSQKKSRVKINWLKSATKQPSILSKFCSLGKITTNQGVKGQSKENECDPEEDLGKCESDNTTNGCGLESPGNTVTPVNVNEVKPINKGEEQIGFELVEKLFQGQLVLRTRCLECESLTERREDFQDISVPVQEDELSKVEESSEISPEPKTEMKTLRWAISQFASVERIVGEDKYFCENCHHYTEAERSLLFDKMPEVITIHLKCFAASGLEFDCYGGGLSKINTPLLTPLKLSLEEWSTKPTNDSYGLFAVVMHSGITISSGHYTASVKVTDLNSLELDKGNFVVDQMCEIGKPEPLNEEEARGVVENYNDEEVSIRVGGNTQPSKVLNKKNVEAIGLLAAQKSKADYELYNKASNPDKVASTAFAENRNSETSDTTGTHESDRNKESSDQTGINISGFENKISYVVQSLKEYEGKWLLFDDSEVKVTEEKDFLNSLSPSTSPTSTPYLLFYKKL
T1 sequence (Q8TAF3 whole entry partner): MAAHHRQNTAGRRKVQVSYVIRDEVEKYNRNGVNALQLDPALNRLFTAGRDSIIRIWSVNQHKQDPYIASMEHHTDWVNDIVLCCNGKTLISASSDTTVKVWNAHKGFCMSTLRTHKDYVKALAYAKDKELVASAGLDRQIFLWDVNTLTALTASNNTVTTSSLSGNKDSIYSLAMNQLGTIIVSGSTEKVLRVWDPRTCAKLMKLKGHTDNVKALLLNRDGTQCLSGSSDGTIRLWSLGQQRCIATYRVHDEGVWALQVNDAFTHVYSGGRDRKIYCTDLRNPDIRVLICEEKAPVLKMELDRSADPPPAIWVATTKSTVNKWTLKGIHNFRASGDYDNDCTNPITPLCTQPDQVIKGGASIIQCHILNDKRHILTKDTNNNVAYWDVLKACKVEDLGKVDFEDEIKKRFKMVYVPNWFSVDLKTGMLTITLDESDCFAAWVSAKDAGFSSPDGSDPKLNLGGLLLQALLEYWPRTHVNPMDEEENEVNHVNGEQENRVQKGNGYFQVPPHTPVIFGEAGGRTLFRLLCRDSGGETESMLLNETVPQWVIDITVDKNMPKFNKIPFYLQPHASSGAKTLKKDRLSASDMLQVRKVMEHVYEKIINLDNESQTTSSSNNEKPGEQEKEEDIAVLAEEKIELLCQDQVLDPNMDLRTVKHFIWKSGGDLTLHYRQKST
Experimental: Purified USP1/UAF1 complex was incubated with 1 μM C527 or DMSO for indicated time, followed by the addition of Ub-AMC at 0.5 μM final concentration. The fluorescence at […] was measured to indicate the enzymatic activity of USP1. […] 5A.
The in vitro enzymatic assays were performed using purified proteins from Sf9 cells as described previously (Cohn et al.). The assays using ubiquitin-AMC (Ub-7-amido-4-methylcoumarin; Boston Biochem) as substrate was carried out in a reaction buffer containing 20 mM HEPES-KOH (pH 7.8), 20 mM NaCl, 0.1 mg/ml ovalbumin, 0.5 mM EDTA and 10 mM dithiothreitol. The fluorescence was measured by FluoStar Galaxy Fluorometer (BMG Labtech). For the Ub-vinylsulfone (VS) assay, the proteins were incubated with Ub-VS at 0.5 μM final concentration for 1 h at 30° C., followed by the immunoblotting analysis.
In order to develop a highly sensitive assay with easy readout for high throughput detection, the fluorogenic compound Ubiquitin-7-amido-4-methylcoumarin (AMC-Ub, Boston Biochem) was used as a substrate for USP1/UAF1 enzyme complex. USP1 catalyzes the cleavage of AMC-Ub, releasing free AMC moiety, which leads to increase in fluorescence emission at 460 nm (λex=380 nm). Dang et al. (1998) Biochemistry 37:1868-79. […] Initial enzyme assay development was performed in 96-well plates with 100 μl reaction volume containing 20 mM HEPES-KOH, 0.1 mg/ml ovalbumin (Sigma), 0.5 mM EDTA, and 10 mM DTT. 2.5 nM USP1/UAF1 enzyme complex was mixed with the reaction buffer, incubated at 37° C. for 10 minutes and then 0.3 μM AMC-Ub was added. Fluorescence was measured using a Fluostar Galaxy Fluorometer (BMG Labtech Inc.).
Hits from the initial screening were analyzed further in secondary screening. In this step, the compounds were re-tested for inhibition using the AMC-Ub in vitro enzyme assay. After reconfirming inhibition, different concentration range of the inhibitors were tested to show dose dependency of inhibition and IC50 calculation.

USP1/UAF1 complex [2] = target: T1, USP1/UAF1 complex; test: high throughput screening for inhibitors of USP1 deubiquitinating activity; format: biochemical; settings: library of approximately 150,000 compounds
Experimental: The ubiquitin-Rho based enzyme assay for high throughput screening was established in a 384-well format. The reaction buffer containing and USP1/UAF1 complex were added in 384 well plates using automated liquid handling robot-Bio-Tek Microfill (Bio-Tek Instrments Inc., VT), followed by addition of the compounds (in DMSO) from the compound library plates to wells using a pin transfer robotic system at a final concentration of 10 μM. The reaction was composed of 0.1 nM purified USP1/UAF complex, 75 nM ubiquitin Rhodamine (Ub-Rho, Boston Biochem, U-600) and 2 μM ubiquitin. Fluorescence was monitored in a FluoStar Galaxy Fluorometer (BMG Labtech). Fluorescence emission at 535 nm (λex=485 nm) was measured in an automated plate reader Envision 2 (Perkin Elmer, Mass.).
In order to develop a highly sensitive assay with easy readout for high throughput detection, the fluorogenic compound Ubiquitin-7-amido-4-methylcoumarin (AMC-Ub, Boston Biochem) was used as a substrate for USP1/UAF1 enzyme complex. USP1 catalyzes the cleavage of AMC-Ub, releasing free AMC moiety, which leads to increase in fluorescence emission at 460 nm (λex=380 nm). Dang et al. (1998) Biochemistry 37:1868-79. Catalytic activity towards AMC-Ub increases 35 fold compared to USP1 enzyme alone. Initial enzyme assay development was performed in 96-well plates with 100 μl reaction volume containing 20 mM HEPES-KOH, 0.1 mg/ml ovalbumin (Sigma), 0.5 mM EDTA, and 10 mM DTT. 2.5 nM USP1/UAF1 enzyme complex was mixed with the reaction buffer, incubated at 37° C. for 10 minutes and then 0.3 μM AMC-Ub was added. Fluorescence was measured using a Fluostar Galaxy Fluorometer (BMG Labtech Inc.).
Once the preliminary enzyme assay was established in 96-well format, it was optimized for 384 wells for high throughput screening (HTS) of inhibitors. The major points to be considered were the volume of the reaction and amount of AMC-Ub substrate to be used in the assay. Since the price of AMC-Ub is very high, in order to make it a feasible assay for HTS, lowest workable amount of the AMC conjugate was used. Reaction volume was minimized to 30 μl in order to meet the recommendation of ICCB-L screening facility (Harvard). In the preliminary optimization experiment, a series of pilot experiments were performed with varying AMC-Ub concentrations (0.025 μM to 0.2 μM), along with the varying concentration of USP1/UAF1 complex (0.2 nM to 3.2 nM). […] After incubating the enzyme and buffer at 37° C. for 10 minutes, AMC-Ub was added and fluorescence emission at 460 nm (λex=380 nm) was measured in an automated plate reader Envision 2 (Perkin Elmer). Fluorescence reading for all time points up to one hour was noted and the data for different AMC-Ub concentration range was plotted with each USP1/UAF1 enzyme complex concentration. […]

HeLa cells = test: DNA damage response markers by immunoblotting; format: cell-based, human; settings: 24 hrs, MMC 1 μM positive control, FIG. 9A
Experimental: FIG. 9 is a composite figure showing that C527 causes DNA damage and inhibits the proliferation of tumor cells. […] HeLa cells were treated with C527 at the indicated concentrations for 24 hrs, and cells were subjected to immunoblotting. Mitomycin C (MMC, 1 μM) was used as a positive control. […] HeLa cells were seeded in a 6-well plate and treated with C527 at the indicated concentrations. Cell proliferation was evaluated using a clonogenic assay.
Impaired HR integrity may lead to genotoxic effect. Genotoxic agents are known to directly activate DNA damage response pathways, resulting in FANCD2 monoubiquitination and CHK1 phosphorylation (FIG. 9A).

USP1/UAF1 complex [3] = target: T1, USP1/UAF1 complex; settings: bioactive libraries; in the range of Al-Ub-treated positive control; previously shown, US 2008/0167229 A1; cited from earlier work
[4] = system: endogenous DUB enzyme complexes; test: HA-Ub-VS labelling of other endogenous DUBs in HeLa cell extracts; format: biochemical, human; settings: HeLa cell extracts pretreated 4 h (Ub-Ald 5 μM), then Ub-VS 40 min at 30° C.; FIG. 7
Experimental: FIG. 7 is a composite figure depicting preferential inhibition of the activity of native USP1/UAF1 by C527. HeLa cell extracts were incubated with ubiquitin-aldehyde (Ub-Ald, 5 μM) or C527 at indicated concentrations for 4 h, followed by the addition of 0.5 μM Ub-Vs for 40 min. The reaction was split into two aliquots and subjected to immunoblotting for HA or USP1, respectively.
The ability of C527 to inhibit the deubiquitinating activity of native USP1 complexes derived from human cells was determined next (FIG. 7). For this purpose, the HA-tagged ubiquitin-VS, an affinity reagent known to covalently modify and trap active DUB enzymes in cell extracts was used. Cell extracts prepared from HeLa cells were pretreated with increasing concentrations of C527 for 4 h, followed by the incubation with Ub-VS for 40 min at 30° C. The enzymatic activity of endogenous DUBs was indicated by the conjugation of Ub-VS, detected as HA-labeling (see FIG. 7, high molecular weight bands). […] Ub-VS conjugation was inhibited by ubiquitin-aldehyde (Ub-Ald), a non-specific inhibitor of DUBs (lane 3).

[5] = system: HR pathway-proficient breast tumor line; settings: preliminary xenograft studies, data not shown
Source text: Preliminary breast cancer xenograft studies with one HR pathway-proficient breast tumor line have been conducted.

identified as inhibitor of USP1 in initial in vitro screening (USP1/UAF1 complex [2]) | Compound | fluorescence signal in high throughput screen (USP1/UAF1 complex [3]) | further results
inhibitors of USP1 | O=C1Cc2ccccc2C(=O)N1Cc1ccco1 [Formula V (947)] | – | pIC50 (USP1/UAF1 complex [1]): 5.12
– | CO[C@@]12[C@H](COC(N)=O)C3=C(C(=O)C(C)=C(N)C3=O)N1C[C@@H]1N[C@@H]12 [MMC, mitomycin C] | – | markers of the DNA damage response (FANCD2 monoubiquitination, CHK1 phosphorylation) (HeLa cells): can activate markers of the DNA damage response
– | CC1(C)CCC2=C(O1)c1ccccc1C(=O)C2=O [β-lapachone] | substantial low fluorescence signal | –
– | Ub-aldehyde [reference compound] | – | Ub-VS labeling of endogenous DUBs (HA-labeling) [4]: inhibited
inhibitors of USP1 | COc1ccc(CN2C(=O)Cc3ccccc3C2=O)cc1OC [Formula VI (009)] | – | pIC50 (USP1/UAF1 complex [1]): 5.62
– | CC[N+](C)(CC)CCC[n+]1c(-c2ccccc2)c2cc(N)ccc2c2ccc(N)cc21.[I-].[I-] [Biomol AP401 (propidium iodide), propidium iodide] | substantial low fluorescence signal | –
– | CC(C)C[C@H](NC(=O)[C@H](Cc1ccccc1)NC(=O)c1cnccn1)B(O)O [Bortezomib] | – | FA/BRCA pathway [5]: inhibited the FA/BRCA pathway
inhibitors of USP1 | NC1=C(Cl)C(=O)c2ccccc2C1=O [Formula III (933)] | – | –
– | CCCCCCCCCCCCCCCC(=O)C1=C(O)C(CO)OC1=O (centres unmarked) [RK-682] | substantial low fluorescence signal | –
